Source: paper PMC12652692, “Synthesis and In Vitro Anticancer Evaluation of Novel Phosphonium Derivatives of Chrysin” (International Journal of Molecular Sciences, 2025)

System: 60 human cancer cell lines
Assay: NCI60 five-dose screen, overall mean
Format: cell-based
Details: mean over all 60 cell lines
Experimental: Since all new conjugates (3a–h) had notable antiproliferative activities on several tumor cell lines in the course of the one-dose screening, they were subjected to a five-dose test. […] J. Mol. Sci. 2025, 26, 11063 10 of 10 S.3. NCI60 Screening A detailed description of the NCI screening procedures can also be found on the website of NCI [39], and in our previous work. S.3.1. One-Dose Screen All candidates were examined at first at a single high dose (10 μM) in the full NCI60 cell panel. The value reported for the one-dose test is growth relative to the no-drug control and relative to the time zero number of cells. This made possible the disclosure of both growth inhibition (numbers between 0 and 100) and lethality (numbers less than 0). For example, a value of 100 means no growth inhibition. A value of 20 would mean 80% growth inhibition. A value of 0 means no net growth over the course of the analysis. A value of −20 would mean 20% lethality. A value of −100 means all cells are dead. S.3.2. […] The human tumor cell lines of the cancer screening panel were grown in RPMI 1640 medium containing 5% fetal bovine serum and 2 mM l-glutamine. Characteristically, cells were injected in 96-well microtiter plates in 0.1 mL at plating densities ranging from 5000 to 40,000 cells/well, depending on the doubling time of individual cell lines. After cell inoculation, the microtiter plates were incubated at 37 °C, 5% carbon dioxide, 95% air, and 100% relative humidity for 24 hours before the addition of tested compounds. After 24 hours, 2 plates of each cell line were fixed in situ with Cl3COOH (TCA), to represent a measurement of the cell population for each cell line at the time of drug addition (tz). Tested compounds were solubilized in DMSO at 400-fold the desired final maximum test concentration and stored frozen before application. In the course of the drug addition, an aliquot of frozen concentrate was thawed and diluted to twice the desired final maximum test concentration with a complete medium containing 50 μg mL−1 gentamicin. Additional four, 10-fold or ½ log serial dilutions were produced to furnish a total of five drug concentrations plus control. Aliquots of 0.1 mL of these different drug dilutions were added to the appropriate microtiter wells already containing 0.1 mL of medium, resulting in the required final drug concentrations. Following drug addition, the plates were incubated at 37 °C, 5% carbon dioxide, 95% air, and 100% relative humidity for an additional 48 hours. For adherent cells, the test was finished by the addition of cold Cl3COOH. Cells were fixed in situ by the addition of 50 μL of cold 50% (w/v) Cl3COOH, and incubated at 4 °C for 1 hour. The supernatant was discarded, and the plates were washed with H2O (5×) and dried in air. Sulforhodamine B (SRB) solution (0.1 mL) at 0.4% (w/v) in 1% CH3COOH was added to each well, and plates were incubated at RT for 10 min. After staining, the unbound dye was removed by washing five times with 1% CH3COOH, and the plates were dried in the air. The bound stain is afterward solubilized with a 10 mM trizma base, and the absorbance is read on an automated plate reader at λ = 515 nm. Utilizing the seven absorbance measurements [time zero (tz), control growth (c), and test growth in the presence of the drug at the five concentration levels (ti)], the percentage growth was determined at each of the drug concentration levels. Growth inhibition (%) was calculated as: [(ti − tz)/(c − tz)] × 100, for concentrations where ti ≥ tz (1) [(ti − tz)/(tz)] × 100, for concentrations where ti < tz. (2) Three dose‒response parameters were calculated as follows. GI50 (growth inhibition of 50%) was determined from Equation (3), which is the drug concentration resulting in a 50% reduction in the net protein increase (as measured by SRB staining) in control cells in the course of the drug incubation. [(ti − tz)/(c − tz)] × 100 = 50 (3)

Structure (SMILES)	GI50
O=c1cc(-c2ccccc2)oc2cc(OCCCC[P+](c3ccccc3)(c3ccccc3)c3ccccc3)cc(O)c12 [3a]	455 nM
Cc1ccc([P+](CCCCOc2cc(O)c3c(=O)cc(-c4ccccc4)oc3c2)(c2ccc(C)cc2)c2ccc(C)cc2)cc1 [3b]	322 nM
COc1ccc([P+](CCCCOc2cc(O)c3c(=O)cc(-c4ccccc4)oc3c2)(c2ccc(OC)cc2)c2ccc(OC)cc2)cc1 [3c]	565 nM
O=c1cc(-c2ccccc2)oc2cc(OCCCC[P+](c3ccc(F)cc3)(c3ccc(F)cc3)c3ccc(F)cc3)cc(O)c12 [3d]	2050 nM
O=c1cc(-c2ccccc2)oc2cc(OCCCC[P+](C3CCCCC3)(C3CCCCC3)C3CCCCC3)cc(O)c12 [3e]	957 nM
COc1c(C)cc([P+](CCCCOc2cc(O)c3c(=O)cc(-c4ccccc4)oc3c2)(c2cc(C)c(OC)c(C)c2)c2cc(C)c(OC)c(C)c2)cc1C [3f]	312 nM
Cc1ccccc1[P+](CCCCOc1cc(O)c2c(=O)cc(-c3ccccc3)oc2c1)(c1ccccc1C)c1ccccc1C [3g]	437 nM
O=c1cc(-c2ccccc2)oc2cc(OCCCC[P+](c3ccccc3)(c3ccccc3)c3ccccn3)cc(O)c12 [3h]	949 nM
